What was measured:
[1] = test system: STAT5 phosphorylation in lymphocytes; assay: STAT5 phosphorylation in lymphocytes by flow cytometry after administration in mice; assay type: in vivo
From the text: Conventional approaches, such as those involving radiolabeling a compound, administering it in vivo, and determining its clearance, may be used to determine whether a compound proposed to be a long-acting IL-2Rβ biased agonist is “long-acting”. For the purposes herein, the long-acting nature of an IL-2Rβ biased agonist is typically determined using flow cytometry to measure STAT5 phosphorylation in lymphocytes at various time points after administration of the agonist to be evaluated in mice.

[2] = test system: B16F10 mouse melanoma tumors; assay: Immune cells in tumor microenvironment by flow cytometry, subcutaneous B16F10 melanoma; assay type: in vivo, mice

## aldesleukin: clinically available IL-2 (aldesleukin), unmodified recombinant IL-2
[1]
  time by which STAT5 phosphorylation signal is lost: around 24 hours
[2]; 5 and 7 days after treatment initiation
  activated natural killer (NK) cells: increased
[2]; by day 7, single dose RSLAIL-2 or 5 doses aldesleukin
  ratio of CD8/Treg in the tumor: 18
[2]; relative to vehicle
  total and memory CD8 cells as percentage of tumor-infiltrating lymphocytes: increased as a percentage of tumor-infiltrating lymphocytes; however, these effects were transient
[2]; single dose RSLAIL-2 or 5 doses aldesleukin
  percentage of Tregs (FoxP3+ subset of CD4 cells) in tumor: modest achieving significance on day 5

Source: patent US12054553B2, “Immunotherapeutic tumor treatment method” (Nektar Therapeutics, priority 2017, dated 2024)
